Test [1] concerns amnesia induced by the acute administration of scopolamine. Briefly: Object discrimination test, intranasal administration, acute ESC. The settings on record: nasal formulation, single intranasal dose (74 μg/kg); ESC 1.5 mg/kg ip; vs control groups. It is filed as in vivo, mice. From the text: Male C57BL/6 mice (20-25 g), supplied by the National Center for the Laboratory Animals Production (CENPALAB, Cuba) were used. The conditions of adaptation and maintenance of the animals before carrying out the experiment were similar to those developed in non-limiting Example 4.
At the end of the adaptation period, the animals were randomly distributed according to their body weights in four experimental groups of 10 animals each: two healthy control groups, one administered with a vehicle via the nasal route (G1) and the other with saline solution via. ip (G2); a sick control group, administered with nasal saline and then, with ESC dissolved in saline solution (1.5 mg/kg, ip) (G3) and a treated group, administered with compound 3 prepared according to the formulation of non-limiting Example 10 and after 15 minutes the ESC is administered (1.5 mg/kg, ip) (G4). This experiment was carried out in two experimental series under the same conditions described in order to study the effects of the nasal formulation of compound 3 in two behavioral models: Y-maze in the hidden arm modality and the object discrimination model. […]
The Object Recognition Test (ORT) is a commonly used behavioral test for the investigation of various aspects of learning and memory, particularly recognition memory, in rodent models of CNS disorders. […] The behavior of the animal was recorded using a video camera. […]

The target in the next test is T1, AChE (Mus musculus, UniProt P21836).
T1 construct: the resulting clear supernatants were used as enzyme sources; from tissue; host or cells: mouse whole brain, supernatant of the homogenate (10,000 x G)
T1 sequence (P21836 32-614): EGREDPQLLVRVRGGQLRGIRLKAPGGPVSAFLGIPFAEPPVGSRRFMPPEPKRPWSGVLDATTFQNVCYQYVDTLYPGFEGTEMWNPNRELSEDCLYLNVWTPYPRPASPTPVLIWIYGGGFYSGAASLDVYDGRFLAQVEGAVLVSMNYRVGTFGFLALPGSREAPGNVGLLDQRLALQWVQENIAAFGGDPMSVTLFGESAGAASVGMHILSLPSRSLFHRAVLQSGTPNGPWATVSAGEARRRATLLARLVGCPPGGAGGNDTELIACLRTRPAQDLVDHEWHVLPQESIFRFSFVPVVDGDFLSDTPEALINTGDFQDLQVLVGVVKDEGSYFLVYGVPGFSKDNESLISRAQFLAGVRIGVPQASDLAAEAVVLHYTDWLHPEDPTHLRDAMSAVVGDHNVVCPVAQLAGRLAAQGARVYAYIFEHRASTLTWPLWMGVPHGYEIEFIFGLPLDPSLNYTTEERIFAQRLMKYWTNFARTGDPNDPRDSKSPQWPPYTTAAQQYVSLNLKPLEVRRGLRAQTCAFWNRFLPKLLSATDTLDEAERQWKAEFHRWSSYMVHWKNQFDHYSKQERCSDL
Briefly: AChE activity ex vivo in brain homogenates (Ellman), acute ESC model. The settings on record: soluble fraction of brain homogenates, vs ESC group, 3 p<0.05, donepezil p<0.01. More on the design: species or system mice. (In general: DTNB colorimetry detects thiols as they appear.)

Experimental for AChE: Briefly the procedure was as follows; at the end of the behavioral experiments, the mice were anesthetized and decapitated to quickly remove the brains, which were placed on an ice-cold plate. They were weighed and homogenized (1/10, w/v) in cold 10 mmol/L Tris-HCl buffer, pH 7.2, containing 160 mmol/L sucrose. The homogenates were centrifuged at 10,000×G for 10 minutes at 4° C., and the resulting clear supernatants were used as enzyme sources, which were aliquoted (n=10 per group) and stored at −20° C. The assay was performed in 96-well microtiter plates using Ellman's reagent (DTNB 10 mmol/L), 50 μL homogenate and 10 μL Acetylcholine iodide (AChl, 20 mmol/L) (final volume 200 μL). The absorbance of the yellow hydrolyzate of the 5-thio-2-nitrobenzoic acid dianion (molar extinction coefficient: 13 700 mol/L^−1 cm^−1), was measured at 412 nm, for 20 minutes with an interval of 1 minute. AChE activity was performed in triplicate and was expressed in nmol of hydrolyzed Achl per minute per mg of protein.
All data are expressed as the mean±standard error of the mean (SEM). The comparison of the cholinesterase activity values was carried out by means of a one-way analysis of variance, followed by the Turkey post-hoc test. Statistical analysis was performed using GraphPadPrism version 5 (GraphPad Software, Inc., San Diego, USA).

For `CSC(=S)NCCNC(=O)CCC(=O)Nc1cccc2ccccc12` [compound 3, methyl(2-{[4-(1-naphthylamino)-4-oxobutanoyl]amino}ethyl)dithiocarbamate], the “discrimination index (DI) of the novel object” value in test [1] is “No significant differences were observed in the discrimination index”. Also, the “AChE activity ex vivo” value at AChE is “significantly reduced”.
